In patent US20230255927A1 (ELANCO TIERGESUNDHEIT AG, priority 2022, published 2023):

Tested on: lactating dairy cows
Assay: New York/Cornell Study: dietary monensin fed to lactating dairy cows
Assay type: in vivo
Source text: Lactating dairy cows were used for the instant example. Methods: One-hundred ninety-two lactating cows (120±50 DIM) were randomly assigned to 12 pens each including 16 cows.

With CC[C@@]1([C@@H]2O[C@@H]([C@H]3O[C@@](O)(CO)[C@H](C)C[C@@H]3C)C[C@@H]2C)CC[C@H]([C@]2(C)CC[C@]3(C[C@H](O)[C@@H](C)[C@@H]([C@@H](C)[C@@H](OC)[C@H](C)C(=O)O)O3)O2)O1 [monensin] the DMI (R11, 11 g/ton) was 59 lb/d, the ECM (R11, 11 g/ton) was 103 lb/d and the “Estimated Dietary Energy” value (R11, 11 g/ton) was 1.65 Mcal/kg DM. For the same molecule, the “Milk Fat” value (R11, 11 g/ton) was 4.67%, the “Milk Yield” value (R11, 11 g/ton) was 88 lb/d and the Protein (R11, 11 g/ton) was 3.38%. The “Energy-corrected milk (ECM)” value (R11 group, 11 g/ton) was 46.9 kg/day, the Milk Yield (R11 group, 11 g/ton) was 39.9 kg/day and the Milk fat yield (R11 group, 11 g/ton) was 1.83 kg/day. For the same molecule, the Milk protein yield (R11 group, 11 g/ton) was 1.33 kg/day, the DMI (R14.5, 14.5 g/ton) was 59 lb/d and the ECM (R14.5, 14.5 g/ton) was 104 lb/d. The “Estimated Dietary Energy” value (R14.5, 14.5 g/ton) was 1.65 Mcal/kg DM, the “Milk Fat” value (R14.5, 14.5 g/ton) was 4.71% and the “Milk Yield” value (R14.5, 14.5 g/ton) was 87 lb/d. For the same molecule, the Protein (R14.5, 14.5 g/ton) was 3.37%, the “Energy-corrected milk (ECM)” value (R14.5 group, 14.5 g/ton) was 47.1 kg/day and the “FA unsaturation compared to CON” value (R14.5 group, 14.5 g/ton) was “significantly reduced”. The Milk Yield (R14.5 group, 14.5 g/ton) was 39.7 kg/day, the Milk fat yield (R14.5 group, 14.5 g/ton) was 1.85 kg/day and the Milk protein yield (R14.5 group, 14.5 g/ton) was 1.33 kg/day. The DMI (R18, 18 g/ton) was 61 lb/d, the ECM (R18, 18 g/ton) was 103 lb/d and the “Estimated Dietary Energy” value (R18, 18 g/ton) was 1.68 Mcal/kg DM. The “Milk Fat” value (R18, 18 g/ton) was 4.67%, the “Milk Yield” value (R18, 18 g/ton) was 87 lb/d and the Protein (R18, 18 g/ton) was 3.39%. The DMI (R18 group, 18 g/ton) was “increased numerically”, the “Energy-corrected milk (ECM)” value (R18 group, 18 g/ton) was 46.8 kg/day and the “FA unsaturation compared to CON” value (R18 group, 18 g/ton) was “significantly reduced”. The Milk Yield (R18 group, 18 g/ton) was 39.6 kg/day, the Milk fat yield (R18 group, 18 g/ton) was 1.83 kg/day and the Milk protein yield (R18 group, 18 g/ton) was 1.33 kg/day. For the same molecule, the Milk fat percentage (all treatment groups) was “greater than 4.6%”, the “Milk true protein percent” value (all treatment groups) was at least 3.35% and the “Increase in ECM” value (increasing monensin supplementation, non-significant) was 2%.
